Measurements published in patent US11149040B2, “Fused triazole agonists of the APJ receptor” (AMGEN INC., priority 2017, dated 2021).

Target: human APJ receptor (Homo sapiens (Human), UniProt P35414)
Test: [35S]GTPγS binding assay on membranes from CHO cells stably expressing human APJ receptor
Assay type: biochemical
Conditions: read-out: Activity hAPJ SPA EC50 IP
Procedure: [^35S]GTPγS Binding The human APJ receptor was cloned by polymerase chain reaction and the gene encoding the receptor was subcloned in pFLAG-CMV™-3 expression vector (Sigma, Saint Louis, Mo. USA) in-house at Amgen. A GTPγS binding assay was performed on membranes prepared from CHO cells stably expressing human APJ receptor. The optimum experimental conditions for the concentrations of GDP, MgCl2, and NaCl in the assay buffer were initially determined. […] Incubation was at RT for 90 min and the microplate was read using a ViewLux™ ultra HTS Microplate Imager (PerkinElmer, Inc.). All the results presented are means of several independent experiments and analyzed by non-linear regression methods using the commercially available program Prism (GraphPad, San Diego, Calif.) providing the EC50 values detailed in Table 13.

human APJ receptor, sequence (P35414 whole entry): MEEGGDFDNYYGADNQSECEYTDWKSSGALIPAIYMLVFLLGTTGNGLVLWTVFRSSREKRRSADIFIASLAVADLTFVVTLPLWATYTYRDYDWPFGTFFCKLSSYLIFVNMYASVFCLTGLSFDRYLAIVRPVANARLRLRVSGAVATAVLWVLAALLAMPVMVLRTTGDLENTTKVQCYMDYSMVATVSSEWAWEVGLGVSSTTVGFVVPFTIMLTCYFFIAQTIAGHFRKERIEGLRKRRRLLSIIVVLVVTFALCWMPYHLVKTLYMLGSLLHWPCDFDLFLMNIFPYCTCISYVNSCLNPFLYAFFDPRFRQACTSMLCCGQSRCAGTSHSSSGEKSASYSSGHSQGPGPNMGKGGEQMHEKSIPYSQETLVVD

Row | SMILES | EC50
1 | COC[C@@H]1COc2ccc(OC)nc2-c2nnc(NS(=O)(=O)[C@@H](C)[C@H](C)c3ncc(OC)cn3)n21 (single isomer, unassigned) [Example 6.0, (2S,3R)-N-((5R)-10-methoxy-5-(methoxymethyl)-5,6-dihydropyrido[2,3-f][1,2,4]triazolo[4,3-d][1,4]oxazepin-3-yl)-3-(5-methoxy-2-pyrimidinyl)-2-butanesulfonamide or (2S,3R)-N-((5S)-10-methoxy-5-(methoxymethyl)-5,6-dihydropyrido[2,3-f][1,2,4]triazolo[4,3-d][1,4]oxazepin-3-yl)-3-(5-methoxy-2-pyrimidinyl)-2-butanesulfonamide] | 2300 nM
2 | COC[C@@H]1COc2ccc(F)cc2-c2nnc(NS(=O)(=O)[C@@H](C)[C@H](OC)c3ncc(C)cn3)n21 (single isomer, unassigned) [Example 28.0, (1R,2S)-N-((5R)-10-fluoro-5-(methoxymethyl)-5,6-dihydro[1,2,4]triazolo[4,3-d][1,4]benzoxazepin-3-yl)-1-methoxy-1-(5-methyl-2-pyrimidinyl)-2-propanesulfonamide or (1R,2S)-N-((5S)-10-fluoro-5-(methoxymethyl)-5,6-dihydro[1,2,4]triazolo[4,3-d][1,4]benzoxazepin-3-yl)-1-methoxy-1-(5-methyl-2-pyrimidinyl)-2-propanesulfonamide] | 170 nM
3 | COCC1COc2ccc(OC)cc2-c2nnc(NS(=O)(=O)[C@@H](C)[C@@H](OC(C)C)c3ncc(C)cn3)n21 (single isomer, unassigned) [Example 153.0, (1S,2S)-N-((5R)-10-methoxy-5-(methoxymethyl)-5,6-dihydro[1,2,4]triazolo[4,3-d][1,4]benzoxazepin-3-yl)-1-(5-methyl-2-pyrimidinyl)-1-(2-propanyloxy)-2-propanesulfonamide or (1S,2S)-N-((5S)-10-methoxy-5-(methoxymethyl)-5,6-dihydro[1,2,4]triazolo[4,3-d][1,4]benzoxazepin-3-yl)-1-(5-methyl-2-pyrimidinyl)-1-(2-propanyloxy)-2-propanesulfonamide] | 250 nM
4 | Cc1cnc([C@H](OC(C)C)[C@H](C)S(=O)(=O)Nc2nnc3n2-c2c(F)cccc2/C=C\C[C@@H]3C)nc1 (single isomer, unassigned) [Example 50.0] | 12 nM
5 | Cc1cnc([C@H](OC(C)C)[C@H](C)S(=O)(=O)Nc2nnc3n2[C@H](COC(C)C)COc2ccc(F)cc2-3)nc1 (mixture of isomers) [Example 62.0, (1S,2S)-N-((R)-10-fluoro-5-(isopropoxymethyl)-5,6-dihydrobenzo[f][1,2,4]triazolo[4,3-d][1,4]oxazepin-3-yl)-1-isopropoxy-1-(5-methylpyrimidin-2-yl)propane-2-sulfonamide and (1S,2S)-N-((S)-10-fluoro-5-(isopropoxymethyl)-5,6-dihydrobenzo[f][1,2,4]triazolo[4,3-d][1,4]oxazepin-3-yl)-1-isopropoxy-1-(5-methylpyrimidin-2-yl)propane-2-sulfonamide] | 21 nM
6 | COC[C@@H]1COc2ccc(OC)nc2-c2nnc(NS(=O)(=O)[C@@H](C)[C@@H](OC(C)C)c3ncc(C)cn3)n21 (single isomer, unassigned) [Example 14.0, (1S,2S)-N-((5R)-10-methoxy-5-(methoxymethyl)-5,6-dihydropyrido[2,3-1][1,2,4]triazolo[4,3-d][1,4]oxazepin-3-yl)-1-(5-methyl-2-pyrimidinyl)-1-(2-propanyloxy)-2-propanesulfonamide or (1S,2S)-N-((5S)-10-methoxy-5-(methoxymethyl)-5,6-dihydropyrido[2,3-1][1,2,4]triazolo[4,3-d][1,4]oxazepin-3-yl)-1-(5-methyl-2-pyrimidinyl)-1-(2-propanyloxy)-2-propanesulfonamide] | 400 nM
7 | COC[C@@H]1COc2ncccc2-c2nnc(NS(=O)(=O)[C@@H](C)[C@@H](OC(C)C)c3ncc(Cl)cn3)n21 (single isomer, unassigned) [Example 44.0, (1S,2S)-1-(5-chloro-2-pyrimidinyl)-N-((5R)-5-(methoxymethyl)-5,6-dihydropyrido[3,2-f][1,2,4]triazolo[4,3-d][1,4]oxazepin-3-yl)-1-(2-propanyloxy)-2-propanesulfonamide or (1S,2S)-1-(5-chloro-2-pyrimidinyl)-N-((5S)-5-(methoxymethyl)-5,6-dihydropyrido[3,2-f][1,2,4]triazolo[4,3-d][1,4]oxazepin-3-yl)-1-(2-propanyloxy)-2-propanesulfonamide] | 15 nM
8 | COC[C@@H]1COc2ncccc2-c2nnc(NS(=O)(=O)[C@@H](C)[C@H](OC(C)C)c3ncc(C)cn3)n21 (single isomer, unassigned) [Example 67.0, (1R,2S)-N-((5R)-5-(methoxymethyl)-5,6-dihydropyrido[3,2-f][1,2,4]triazolo[4,3-d][1,4]oxazepin-3-yl)-1-(5-methyl-2-pyrimidinyl)-1-(2-propanyloxy)-2-propanesulfonamide or (1R,2S)-N-((5S)-5-(methoxymethyl)-5,6-dihydropyrido[3,2-f][1,2,4]triazolo[4,3-d][1,4]oxazepin-3-yl)-1-(5-methyl-2-pyrimidinyl)-1-(2-propanyloxy)-2-propanesulfonamide] | 250 nM
9 | Cc1cnc([C@H](OC(C)C)[C@H](C)S(=O)(=O)Nc2nnc3n2-c2c(F)cccc2/C=C\C[C@@H]3C)nc1 (single isomer, unassigned) [Example 51.0] | 8.6 nM
10 | Cc1cnc([C@H](OC(C)C)[C@H](C)S(=O)(=O)Nc2nnc3n2[C@H](CO)OCc2ccc(C(F)(F)F)cc2-3)nc1 (single isomer, unassigned) [Example 156.0, (1S,2S)-N-((R)-5-(hydroxymethyl)-10-(trifluoromethyl)-5,6-dihydrobenzo[f][1,2,4]triazolo[4,3-d][1,4]oxazepin-3-yl)-1-isopropoxy-1-(5-methylpyrimidin-2-yl)propane-2-sulfonamide or (1S,2S)-N-((S)-5-(hydroxymethyl)-10-(trifluoromethyl)-5,6 dihydrobenzo[f][1,2,4]triazolo[4,3-d][1,4]oxazepin-3-yl)-1-isopropoxy-1-(5-methylpyrimidin-2-yl)propane-2-snlfonamide] | 2110 nM
11 | COC[C@@H]1COc2ccccc2-c2nnc(NS(=O)(=O)[C@@H](C)[C@@H](OC(C)C)c3ncc(C)cn3)n21 (single isomer, unassigned) [Example 5.0, (1S,2S)-N-((5R)-5-(methoxymethyl)-5,6-dihydro[1,2,4]triazolo[4,3-d][1,4]benzoxazepin-3-yl)-1-(5-methyl-2-pyrimidinyl)-1-(2-propanyloxy)-2-propanesulfonamide or (1S,2S)-N-((5S)-5-(methoxymethyl)-5,6-dihydro[1,2,4]triazolo[4,3-d][1,4]benzoxazepin-3-yl)-1-(5-methyl-2-pyrimidinyl)-1-(2-propanyloxy)-2-propanesulfonamide] | 130 nM
12 | COC[C@@H]1COc2ncccc2-c2nnc(NS(=O)(=O)[C@@H](C)[C@@H](OC(C)C)c3ncc(Cl)cn3)n21 (single isomer, unassigned) [Example 45.0, (1S,2S)-1-(5-chloro-2-pyrimidinyl)-N-((5R)-5-(methoxymethyl)-5,6-dihydropyrido[3,2-f][1,2,4]triazolo[4,3-d][1,4]oxazepin-3-yl)-1-(2-propanyloxy)-2-propanesulfonamide or (1S,2S)-1-(5-chloro-2-pyrimidinyl)-N-((5S)-5-(methoxymethyl)-5,6-dihydropyrido[3,2-f][1,2,4]triazolo[4,3-d][1,4]oxazepin-3-yl)-1-(2-propanyloxy)-2-propanesulfonamide] | 160 nM
13 | COC[C@@H]1COc2ccc(OC)nc2-c2nnc(NS(=O)(=O)[C@@H](C)[C@H](C)c3ncc(C)cn3)n21 (single isomer, unassigned) [Example 13.0, (2S,3R)-N-((5R)-10-methoxy-5-(methoxymethyl)-5,6-dihydropyrido[2,3-f][1,2,4]triazolo[4,3-d][1,4]oxazepin-3-yl)-3-(5-methyl-2-pyrimidinyl)-2-butanesulfonamide or (2S,3R)-N-((5S)-10-methoxy-5-(methoxymethyl)-5,6-dihydropyrido[2,3-f][1,2,4]traizolo[4,3-d][1,4]oxazepin-3-yl)-3-(5-methyl-2-pyrimidinyl)-2-butanesulfonamide] | 370 nM
14 | COC[C@@H]1COc2ccc(OC)nc2-c2nnc(NS(=O)(=O)[C@@H](C)[C@H](C)c3ncc(C)cn3)n21 (mixture of isomers) [Example 10.0, (2S,3R)-N-((5R)-10-methoxy-5-(methoxymethyl)-5,6-dihydropyrido[2,3-f][1,2,4]triazolo[4,3-d][1,4]oxazepin-3-yl)-3-(5-methyl-2-pyrimidinyl)-2-butanesulfonamide and (2S,3R)-N-((5S)-10-methoxy-5-(methoxymethyl)-5,6-dihydropyrido[2,3-f][1,2,4]triazolo[4,3-d][1,4]oxazepin-3-yl)-3-(5-methyl-2-pyrimidinyl)-2-butanesulfonamide] | 790 nM
15 | COC[C@@H]1COc2ccc(F)cc2-c2nnc(NS(=O)(=O)[C@@H](C)[C@H](OC)c3ncc(C)cn3)n21 (stereo in doubt) [Example 24.0, (1R,2S)-N-((5R)-10-fluoro-5-(methoxymethyl)-5,6-dihydro[1,2,4]traizolo[4,3-d][1,4]benzoxazepin-3-yl)-1-methoxy-1-(5-methyl-2-pyrimidinyl)-2-propanesulfonamide and (1R,2S)-N-((5S)-10-fluoro-5-(methoxymethyl)-5,6-dihydro[1,2,4]triazolo[4,3-d][1,4]benzoxazepin-3-yl)-1-methoxy-1-(5-methyl-2-pyrimidinyl)-2-propanesulfonamide] | 260 nM
